How the values were obtained:
Test in all cases: relative viability (nuclei count vs DMSO), 5 days (fraction); higher = more cells survive
[1] = compound: C1=CC2=NC=CN=C2C=C1/C=C/3\C(=O)NC(=O)S3
Procedure, shortened: (§1)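 Viability was read as treated-well nuclei divided by vehicle-well nuclei, using the median across plates. Lung cancer cell lines in 1536-well plates were kept overnight at 37 °C, pinned with five √10-spaced library-drug doses, and after 5 days were Hoechst-stained, imaged at 4× and counted in MetaXpress. Plates passed only with control CV below 25% and at least one doubling.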

BGJ398 = compound: CCN1CCN(c2ccc(Nc3cc(N(C)C(=O)Nc4c(Cl)c(OC)cc(OC)c4Cl)ncn3)cc2)CC1 [BGJ398]
Procedure, shortened: as §1

[2] = compound: C1=CC2=NC=CN=C2C=C1/C=C/3\C(=O)NC(=O)S3 + Cc1nc(NC(=O)N2CCC[C@H]2C(N)=O)sc1-c1ccnc(C(C)(C)C(F)(F)F)c1 [Alpelisib] (partner 2 µM)
Procedure, shortened: (§2)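 Relative viability is defined as nuclei in treated wells over nuclei in vehicle wells. Duplicate plates were run and medians reported. Lung cancer cell lines in 1536-well plates were dosed by pin tool one day after seeding, with one drug or with a fixed anchor-drug dose plus five library-drug doses (not always all listed) in √10 steps, and nuclei were counted after 5 days.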

BGJ398 + Pemetrexed = compound: CCN1CCN(c2ccc(Nc3cc(N(C)C(=O)Nc4c(Cl)c(OC)cc(OC)c4Cl)ncn3)cc2)CC1 [BGJ398] + Nc1nc2[nH]cc(CCc3ccc(C(=O)N[C@@H](CCC(=O)O)C(=O)O)cc3)c2c(=O)[nH]1 [Pemetrexed] (partner 0.2 µM)
Procedure, shortened: as §2

## NCI-H2023
[1]; 0.02 µM
  relative viability: 0.94
[1]; 0.06325 µM
  relative viability: 0.966
[1]; 0.2 µM
  relative viability: 1.02
[1]; 0.6325 µM
  relative viability: 0.886
[1]; 2 µM
  relative viability: 0.773
BGJ398; 0.01 µM
  relative viability: 0.872
BGJ398; 0.03162 µM
  relative viability: 0.998
BGJ398; 0.1 µM
  relative viability: 0.997
BGJ398; 0.3162 µM
  relative viability: 0.977
BGJ398; 1 µM
  relative viability: 1.01
[2]; first compound 0.02 µM
  relative viability: 0.57
[2]; first compound 0.06325 µM
  relative viability: 0.609
[2]; first compound 0.2 µM
  relative viability: 0.587
[2]; first compound 0.6325 µM
  relative viability: 0.606
[2]; first compound 2 µM
  relative viability: 0.511
BGJ398 + Pemetrexed; first compound 0.01 µM
  relative viability: 0.279
BGJ398 + Pemetrexed; first compound 0.03162 µM
  relative viability: 0.227
BGJ398 + Pemetrexed; first compound 0.1 µM
  relative viability: 0.248
BGJ398 + Pemetrexed; first compound 0.3162 µM
  relative viability: 0.252
BGJ398 + Pemetrexed; first compound 1 µM
  relative viability: 0.242

## NCI-H2085
[1]; 0.02 µM
  relative viability: 0.952
[1]; 0.06325 µM
  relative viability: 1.01
[1]; 0.2 µM
  relative viability: 1
[1]; 0.6325 µM
  relative viability: 0.983
[1]; 2 µM
  relative viability: 0.892
BGJ398; 0.01 µM
  relative viability: 0.951
BGJ398; 0.03162 µM
  relative viability: 1.01
BGJ398; 0.1 µM
  relative viability: 1.01
BGJ398; 0.3162 µM
  relative viability: 0.938
BGJ398; 1 µM
  relative viability: 1.03
[2]; first compound 0.02 µM
  relative viability: 0.991
[2]; first compound 0.06325 µM
  relative viability: 1.01
[2]; first compound 0.2 µM
  relative viability: 1.04
[2]; first compound 0.6325 µM
  relative viability: 0.885
[2]; first compound 2 µM
  relative viability: 1.02
BGJ398 + Pemetrexed; first compound 0.01 µM
  relative viability: 0.927
BGJ398 + Pemetrexed; first compound 0.03162 µM
  relative viability: 0.845
BGJ398 + Pemetrexed; first compound 0.1 µM
  relative viability: 0.885
BGJ398 + Pemetrexed; first compound 0.3162 µM
  relative viability: 0.978
BGJ398 + Pemetrexed; first compound 1 µM
  relative viability: 1.04

## NCI-H2087
[1]; 0.02 µM
  relative viability: 0.918
[1]; 0.06325 µM
  relative viability: 0.925
[1]; 0.2 µM
  relative viability: 1.05
[1]; 0.6325 µM
  relative viability: 0.951
[1]; 2 µM
  relative viability: 0.926
BGJ398; 0.01 µM
  relative viability: 1.01
BGJ398; 0.03162 µM
  relative viability: 1.01
BGJ398; 0.1 µM
  relative viability: 0.966
BGJ398; 0.3162 µM
  relative viability: 1.08
BGJ398; 1 µM
  relative viability: 1.09
[2]; first compound 0.02 µM
  relative viability: 0.965
[2]; first compound 0.06325 µM
  relative viability: 1.3
[2]; first compound 0.2 µM
  relative viability: 1.09
[2]; first compound 0.6325 µM
  relative viability: 1.11
[2]; first compound 2 µM
  relative viability: 1.2
BGJ398 + Pemetrexed; first compound 0.01 µM
  relative viability: 0.644
BGJ398 + Pemetrexed; first compound 0.03162 µM
  relative viability: 0.606
BGJ398 + Pemetrexed; first compound 0.1 µM
  relative viability: 0.671
BGJ398 + Pemetrexed; first compound 0.3162 µM
  relative viability: 0.699
BGJ398 + Pemetrexed; first compound 1 µM
  relative viability: 0.678

## NCI-H2126
[1]; 0.02 µM
  relative viability: 0.885
[1]; 0.06325 µM
  relative viability: 1.07
[1]; 0.2 µM
  relative viability: 0.956
[1]; 0.6325 µM
  relative viability: 0.979
[1]; 2 µM
  relative viability: 0.621
BGJ398; 0.01 µM
  relative viability: 1.02
BGJ398; 0.03162 µM
  relative viability: 0.999
BGJ398; 0.1 µM
  relative viability: 1.04
BGJ398; 0.3162 µM
  relative viability: 0.989
BGJ398; 1 µM
  relative viability: 0.948
[2]; first compound 0.02 µM
  relative viability: 0.662
[2]; first compound 0.06325 µM
  relative viability: 0.786
[2]; first compound 0.2 µM
  relative viability: 0.752
[2]; first compound 0.6325 µM
  relative viability: 0.757
[2]; first compound 2 µM
  relative viability: 0.639
BGJ398 + Pemetrexed; first compound 0.01 µM
  relative viability: 0.724
BGJ398 + Pemetrexed; first compound 0.03162 µM
  relative viability: 0.717
BGJ398 + Pemetrexed; first compound 0.1 µM
  relative viability: 0.689
BGJ398 + Pemetrexed; first compound 0.3162 µM
  relative viability: 0.674
BGJ398 + Pemetrexed; first compound 1 µM
  relative viability: 0.684

## NCI-H2170
[1]; 0.02 µM
  relative viability: 0.909
[1]; 0.06325 µM
  relative viability: 1
[1]; 0.2 µM
  relative viability: 1.01
[1]; 0.6325 µM
  relative viability: 0.938
[1]; 2 µM
  relative viability: 0.998
BGJ398; 0.01 µM
  relative viability: 0.988
BGJ398; 0.03162 µM
  relative viability: 1.06
BGJ398; 0.1 µM
  relative viability: 1.1
BGJ398; 0.3162 µM
  relative viability: 1.03
BGJ398; 1 µM
  relative viability: 1.07
[2]; first compound 0.02 µM
  relative viability: 0.757
[2]; first compound 0.06325 µM
  relative viability: 0.761
[2]; first compound 0.2 µM
  relative viability: 0.928
[2]; first compound 0.6325 µM
  relative viability: 0.769
[2]; first compound 2 µM
  relative viability: 0.746
BGJ398 + Pemetrexed; first compound 0.01 µM
  relative viability: 0.273
BGJ398 + Pemetrexed; first compound 0.03162 µM
  relative viability: 0.254
BGJ398 + Pemetrexed; first compound 0.1 µM
  relative viability: 0.283
BGJ398 + Pemetrexed; first compound 0.3162 µM
  relative viability: 0.276
BGJ398 + Pemetrexed; first compound 1 µM
  relative viability: 0.247

## NCI-H2228
[1]; 0.02 µM
  relative viability: 0.898
[1]; 0.06325 µM
  relative viability: 1.06
[1]; 0.2 µM
  relative viability: 1.22
[1]; 0.6325 µM
  relative viability: 0.898
[1]; 2 µM
  relative viability: 0.842
BGJ398; 0.01 µM
  relative viability: 0.814
BGJ398; 0.03162 µM
  relative viability: 1.18
BGJ398; 0.1 µM
  relative viability: 1.38
BGJ398; 0.3162 µM
  relative viability: 0.876
BGJ398; 1 µM
  relative viability: 0.963
[2]; first compound 0.02 µM
  relative viability: 0.814
[2]; first compound 0.06325 µM
  relative viability: 1.12
[2]; first compound 0.2 µM
  relative viability: 0.802
[2]; first compound 0.6325 µM
  relative viability: 0.674
[2]; first compound 2 µM
  relative viability: 0.664
BGJ398 + Pemetrexed; first compound 0.01 µM
  relative viability: 0.312
BGJ398 + Pemetrexed; first compound 0.03162 µM
  relative viability: 0.367
BGJ398 + Pemetrexed; first compound 0.1 µM
  relative viability: 0.377
BGJ398 + Pemetrexed; first compound 0.3162 µM
  relative viability: 0.342
BGJ398 + Pemetrexed; first compound 1 µM
  relative viability: 0.299

## NCI-H2347
[1]; 0.02 µM
  relative viability: 0.971
[1]; 0.06325 µM
  relative viability: 0.913
[1]; 0.2 µM
  relative viability: 1
[1]; 0.6325 µM
  relative viability: 1
[1]; 2 µM
  relative viability: 0.918
BGJ398; 0.01 µM
  relative viability: 0.957
BGJ398; 0.03162 µM
  relative viability: 1.09
BGJ398; 0.1 µM
  relative viability: 1.06
BGJ398; 0.3162 µM
  relative viability: 1.04
BGJ398; 1 µM
  relative viability: 0.94
[2]; first compound 0.02 µM
  relative viability: 1.02
[2]; first compound 0.06325 µM
  relative viability: 1.09
[2]; first compound 0.2 µM
  relative viability: 1.08
[2]; first compound 0.6325 µM
  relative viability: 1.07
[2]; first compound 2 µM
  relative viability: 1.02
BGJ398 + Pemetrexed; first compound 0.01 µM
  relative viability: 0.4
BGJ398 + Pemetrexed; first compound 0.03162 µM
  relative viability: 0.462
BGJ398 + Pemetrexed; first compound 0.1 µM
  relative viability: 0.427
BGJ398 + Pemetrexed; first compound 0.3162 µM
  relative viability: 0.43
BGJ398 + Pemetrexed; first compound 1 µM
  relative viability: 0.375

## NCI-H2405
[1]; 0.02 µM
  relative viability: 1.08
[1]; 0.06325 µM
  relative viability: 1.02
[1]; 0.2 µM
  relative viability: 1.02
[1]; 0.6325 µM
  relative viability: 1.01
[1]; 2 µM
  relative viability: 0.394
BGJ398; 0.01 µM
  relative viability: 1.04
BGJ398; 0.03162 µM
  relative viability: 1.11
BGJ398; 0.1 µM
  relative viability: 0.99
BGJ398; 0.3162 µM
  relative viability: 1.01
BGJ398; 1 µM
  relative viability: 0.958
[2]; first compound 0.02 µM
  relative viability: 0.692
[2]; first compound 0.06325 µM
  relative viability: 0.92
[2]; first compound 0.2 µM
  relative viability: 0.872
[2]; first compound 0.6325 µM
  relative viability: 0.804
[2]; first compound 2 µM
  relative viability: 0.703
BGJ398 + Pemetrexed; first compound 0.01 µM
  relative viability: 1.05
BGJ398 + Pemetrexed; first compound 0.03162 µM
  relative viability: 1.15
BGJ398 + Pemetrexed; first compound 0.1 µM
  relative viability: 1.09
BGJ398 + Pemetrexed; first compound 0.3162 µM
  relative viability: 1.3
BGJ398 + Pemetrexed; first compound 1 µM
  relative viability: 1.02

Source: the supplement of paper PMC10307832
